Here are results for 37 compounds from patent US20200291018A1, “TAM KINASE INHIBITORS” (SYROS PHARMACEUTICALS, INC., priority 2017, published 2020).

In one assay the target is T1, TYRO3 (Homo sapiens, UniProt Q06418).
T1 sequence (Q06418 41-890): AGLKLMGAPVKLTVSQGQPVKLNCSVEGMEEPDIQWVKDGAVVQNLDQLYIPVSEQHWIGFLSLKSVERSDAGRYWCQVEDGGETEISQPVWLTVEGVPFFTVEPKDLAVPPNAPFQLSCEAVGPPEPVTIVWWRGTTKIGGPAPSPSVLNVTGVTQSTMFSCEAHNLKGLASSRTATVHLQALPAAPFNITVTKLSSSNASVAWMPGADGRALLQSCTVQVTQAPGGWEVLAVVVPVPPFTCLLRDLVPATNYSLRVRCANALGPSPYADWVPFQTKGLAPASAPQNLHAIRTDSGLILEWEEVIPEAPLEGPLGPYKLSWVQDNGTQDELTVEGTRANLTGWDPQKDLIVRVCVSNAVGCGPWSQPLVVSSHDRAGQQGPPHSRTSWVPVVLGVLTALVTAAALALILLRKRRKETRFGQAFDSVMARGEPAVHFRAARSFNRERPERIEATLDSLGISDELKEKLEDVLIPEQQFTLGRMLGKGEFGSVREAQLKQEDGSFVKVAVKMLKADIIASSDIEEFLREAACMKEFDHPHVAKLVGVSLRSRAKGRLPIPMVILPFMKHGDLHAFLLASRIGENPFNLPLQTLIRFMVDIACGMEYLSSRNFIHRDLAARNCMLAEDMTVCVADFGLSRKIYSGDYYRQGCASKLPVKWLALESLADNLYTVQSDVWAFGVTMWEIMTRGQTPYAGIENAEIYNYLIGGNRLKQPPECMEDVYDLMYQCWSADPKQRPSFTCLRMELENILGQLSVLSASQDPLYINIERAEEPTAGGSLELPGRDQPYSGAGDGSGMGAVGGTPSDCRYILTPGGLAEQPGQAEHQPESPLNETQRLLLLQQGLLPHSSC
Nature of the assay: TR-FRET kinase activity assay, TYRO3. The class given is biochemical. To be noted: ATP at Km, 60 minutes. The method in brief: (§1)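 Each kinase phosphorylates a fluorescently labeled peptide on tyrosine in the presence of compound, with ATP at its Km, for 60 min at RT in HEPES pH 7.5 buffer with MgCl2, EGTA, Brij 35 and DTT. Product is detected by TR-FRET with a Europium-labeled phospho-specific antibody; IC50 values follow.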
(In general: TR-FRET usually uses a lanthanide donor and a delayed reading to cut background.)

The target of the next assay is T2, AXL (Homo sapiens, UniProt P30530).
T2 sequence (P30530 26-894): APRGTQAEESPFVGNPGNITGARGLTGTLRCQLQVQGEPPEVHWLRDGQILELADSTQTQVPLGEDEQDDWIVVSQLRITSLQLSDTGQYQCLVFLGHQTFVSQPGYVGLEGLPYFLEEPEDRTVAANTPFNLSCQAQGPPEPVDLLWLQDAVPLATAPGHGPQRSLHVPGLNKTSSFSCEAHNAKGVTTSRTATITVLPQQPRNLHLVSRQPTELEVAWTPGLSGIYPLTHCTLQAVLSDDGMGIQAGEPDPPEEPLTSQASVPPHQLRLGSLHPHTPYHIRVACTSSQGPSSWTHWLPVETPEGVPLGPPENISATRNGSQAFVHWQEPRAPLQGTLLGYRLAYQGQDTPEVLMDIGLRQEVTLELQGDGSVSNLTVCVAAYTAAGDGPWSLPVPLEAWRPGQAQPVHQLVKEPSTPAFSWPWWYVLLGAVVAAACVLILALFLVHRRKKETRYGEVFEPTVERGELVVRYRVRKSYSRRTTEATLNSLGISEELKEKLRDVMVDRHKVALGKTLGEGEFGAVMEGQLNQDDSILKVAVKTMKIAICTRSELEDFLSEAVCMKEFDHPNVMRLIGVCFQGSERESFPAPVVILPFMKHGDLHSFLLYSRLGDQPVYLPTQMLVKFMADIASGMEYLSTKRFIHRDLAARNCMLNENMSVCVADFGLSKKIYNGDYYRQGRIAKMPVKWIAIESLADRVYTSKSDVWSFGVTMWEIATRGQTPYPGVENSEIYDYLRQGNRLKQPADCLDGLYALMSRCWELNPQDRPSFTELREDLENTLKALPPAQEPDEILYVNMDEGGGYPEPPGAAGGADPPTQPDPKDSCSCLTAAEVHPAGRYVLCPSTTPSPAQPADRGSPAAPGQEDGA
Nature of the assay: TR-FRET kinase activity assay, AXL. The conditions noted are these: ATP at Km, 60 minutes. The class given is biochemical. The method in brief:
as §1

With `CCCC(C)Nc1ncc2c(=O)n(C3CCNCC3)cc([C@H]3CC[C@H](O)CC3)c2n1` (some centres unmarked) [Compound 112], the half-maximal inhibitory concentration (IC50) at TYRO3 is no more than 100 nM; at AXL it was 100 to 1000 nM.

Take `CCCCNc1cc2c(cn1)c(=O)n(C1CCN(C)CC1)cc2[C@H]1CC[C@H](O)CC1` [Compound 116]: the IC50 at TYRO3 is no more than 100 nM; against AXL, 100 to 1000 nM.

In the case of `CCCC(C)Nc1ncc2c(=O)n(C3CCN(C)CC3)cc([C@H]3CC[C@H](O)CC3)c2n1` (some centres unmarked) [Compound 117], the IC50 against TYRO3 is no more than 100 nM; at AXL, 100 to 1000 nM.

On to `CC(C)CC(C)Nc1ncc2c(=O)n(C3CCNCC3)cc([C@H]3CC[C@H](O)CC3)c2n1` (some centres unmarked) [Compound 119], for which the half-maximal inhibitory concentration (IC50) is no more than 100 nM at TYRO3 and 100 to 1000 nM at AXL.

On to `CS(=O)(=O)N1CC[C@H](Nc2ncc3c(OC4CCOCC4)ncc([C@H]4CC[C@H](O)CC4)c3n2)C1` [Compound 278], for which the values for the half-inhibitory concentration (IC50) on TYRO3 and at AXL were 100 to 1000 nM and 1000 to 10000 nM, respectively.

Take `COC[C@H](C)Nc1ncc2c(OC3CCOCC3)ncc(-c3ccc(N4CCN(C)CC4)cc3)c2n1` [Compound 279]: the IC50 against TYRO3 was in the range of 100 to 1000 nM; against AXL, 1000 to 10000 nM.

Consider `COC[C@H](C)Nc1ncc2c(OC3CCOCC3)ncc(-c3ccc(C4CCN(C)CC4)cc3)c2n1` [Compound 280], for which the 50% inhibitory concentration (IC50) on TYRO3 was no more than 100 nM; against AXL, 100 to 1000 nM.

Turning to `CCOC[C@H](C)Nc1ncc2c(OC3CCOCC3)ncc([C@H]3CC[C@H](O)CC3)c2n1` [Compound 281], the half-inhibitory concentration (IC50) at TYRO3 is 100 to 1000 nM; against AXL, 1000 to 10000 nM.

Take `CN1CC(Nc2ncc3c(OC4CCOCC4)ncc([C@H]4CC[C@H](O)CC4)c3n2)CC1=O` (some centres unmarked) [Compound 282]: the IC50 at TYRO3 was in the range of 100 to 1000 nM; at AXL, 1000 to 10000 nM.

For `O=C(O)c1ccc(Nc2ncc3c(OC4CCNCC4)ncc([C@H]4CC[C@H](O)CC4)c3n2)cc1` [Compound 283], the IC50 on TYRO3 and at AXL was no more than 100 nM each time.

As for `C[C@@H](CCO)Nc1ncc2c(OC3CCOCC3)ncc([C@H]3CC[C@H](O)CC3)c2n1` [Compound 284], the IC50 against TYRO3 fell in the range of 100 to 1000 nM; against AXL, 1000 to 10000 nM.

`COC[C@H](C)Nc1cc2c(cn1)c(OC1CCOCC1)ncc2[C@H]1CC[C@H](O)CC1` [Compound 285]: the IC50 against TYRO3 was 100 to 1000 nM; at AXL, 1000 to 10000 nM.

Consider `O[C@H]1CC[C@H](c2cnc(OC3CCOCC3)c3cnc(NCCC(F)(F)F)nc32)CC1` [Compound 286], for which the IC50 on TYRO3 and at AXL was 100 to 1000 nM in each case.

Turning to `CC[C@H](C)Nc1ncc2c(O[C@H]3CC[C@](C)(O)CC3)ncc([C@H]3CC[C@H](O)CC3)c2n1` [Compound 287], the half-inhibitory concentration (IC50) at TYRO3 and at AXL was 100 to 1000 nM each time.

Regarding `CC(C)Nc1ncc2c(OC3CCOCC3)ncc(-c3cccc(S(=O)(=O)N(C)C)c3)c2n1` [Compound 288], the IC50 at TYRO3 is no more than 100 nM; against AXL it was 100 to 1000 nM.

`COC[C@H](C)Nc1ncc2c(OC3CCN(S(C)(=O)=O)CC3)ncc([C@H]3CC[C@H](O)CC3)c2n1` [Compound 289]: the IC50 against TYRO3 and against AXL was 100 to 1000 nM in each case.

As for `CC[C@H](C)Nc1ncc2c(=O)n([C@H]3CC[C@H](N)CC3)cc([C@H]3CC[C@H](O)CC3)c2n1` [Compound 290], the values for the IC50 on TYRO3 and on AXL were no more than 100 nM and 100 to 1000 nM, respectively.

With `CC1(Nc2ncc3c(OC4CCNCC4)ncc([C@H]4CC[C@H](O)CC4)c3n2)CC1` [Compound 291], the IC50 against TYRO3 is no more than 100 nM; on AXL, 100 to 1000 nM.

For the compound `C[C@@H](CC#N)Nc1ncc2c(OC3CCOCC3)ncc([C@H]3CC[C@H](O)CC3)c2n1` [Compound 292], the IC50 on TYRO3 and against AXL was 100 to 1000 nM in each case.

Take `COC[C@H](C)Nc1ncc2c(OC3CCOCC3)ncc([C@H]3CC[C@](C)(O)CC3)c2n1` [Compound 293]: the values for the IC50 at TYRO3 and at AXL were no more than 100 nM and 100 to 1000 nM, respectively.

Consider `COC[C@H](C)Nc1ncc2c(OC3CCOCC3)ncc([C@H]3CC[C@@](C)(O)CC3)c2n1` [Compound 294], for which the 50% inhibitory concentration (IC50) was in the range of 100 to 1000 nM on TYRO3 and 1000 to 10000 nM at AXL.

In the case of `COC[C@H](C)Nc1ncc2c(O[C@H]3C[C@H](O)C3)ncc([C@H]3CC[C@H](O)CC3)c2n1` [Compound 295], the concentration for half-maximal inhibition (IC50) is no more than 100 nM against TYRO3 and 100 to 1000 nM against AXL.

Turning to `COC[C@H](C)Nc1ncc2c(O[C@H]3C[C@@H](O)C3)ncc([C@H]3CC[C@H](O)CC3)c2n1` [Compound 296], the IC50 against TYRO3 was no more than 100 nM; against AXL, 100 to 1000 nM.

For the compound `CNC(=O)Nc1ccc(-c2cnc(OC3CCOCC3)c3cnc(N[C@@H](C)COC)nc23)cc1` [Compound 297], the concentration for half-maximal inhibition (IC50) lay in the range of 100 to 1000 nM against TYRO3 and 1000 to 10000 nM on AXL.

Regarding `CC[C@H](C)Nc1ncc2c(O[C@H]3CC[C@@H](N(C)C)C3)ncc([C@H]3CC[C@H](O)CC3)c2n1` [Compound 298], the IC50 against TYRO3 is no more than 100 nM; against AXL, 100 to 1000 nM.

On to `O[C@H]1CC[C@H](c2cnc(OC3CCNCC3)c3cnc(Nc4ccc(Cl)c(Cl)c4)nc32)CC1` [Compound 299], for which the IC50 against TYRO3 and against AXL was no more than 100 nM throughout.

Consider `CCc1cc(Nc2ncc3c(OC4CCNCC4)ncc([C@H]4CC[C@H](O)CC4)c3n2)ccc1Cl` [Compound 300], for which the 50% inhibitory concentration (IC50) against TYRO3 and against AXL was no more than 100 nM in each case.

For `COC[C@H](C)Nc1ncc2c(OC3CCOCC3)ncc(-c3ccc(O)cc3)c2n1` [Compound 301], the IC50 against TYRO3 fell in the range of 100 to 1000 nM; at AXL, 1000 to 10000 nM.

In the case of `COC[C@H](C)Nc1ncc2c(O[C@H]3CCNCC3(F)F)ncc([C@H]3CC[C@H](O)CC3)c2n1` [Compound 302], the IC50 against TYRO3 was 100 to 1000 nM; against AXL it was 1000 to 10000 nM.

With `COC[C@H](C)Nc1ncc2c(C)ncc([C@H]3CC[C@H](O)CC3)c2n1` [Compound 303], the 50% inhibitory concentration (IC50) against TYRO3 was no more than 100 nM; on AXL, 100 to 1000 nM.

`C[C@@H](CF)Nc1ncc2c(OC3CCOCC3)ncc([C@H]3CC[C@H](O)CC3)c2n1` [Compound 304]: the IC50 on TYRO3 and on AXL was 100 to 1000 nM throughout.

For `C[C@@H](CC(F)(F)F)Nc1ncc2c(OC3CCOCC3)ncc([C@H]3CC[C@H](O)CC3)c2n1` [Compound 305], the concentration for half-maximal inhibition (IC50) was no more than 100 nM on TYRO3 and 100 to 1000 nM on AXL.

For `CC[C@H](C)Nc1ncc2c(OC3CCN(c4ncccn4)CC3)ncc([C@H]3CC[C@H](O)CC3)c2n1` [Compound 306], the concentration for half-maximal inhibition (IC50) on TYRO3 and against AXL was 100 to 1000 nM in each case.

In the case of `COC[C@H](C)Nc1ncc2c(OC3CCOCC3)ncc(-c3cccc(S(=O)(=O)N(C)C)c3)c2n1` [Compound 307, (S)-3-(2-((1-methoxypropan-2-yl)amino)-5-((tetrahydro-2H-pyran-4-yl)oxy)pyrido[4,3-d]pyrimidin-8-yl)-N,N-dimethylbenzenesulfonamide], the IC50 against TYRO3 was 100 to 1000 nM; against AXL, 1000 to 10000 nM.

With `COC[C@H](C)Nc1ncc2c(O[C@@H]3CCNCC3(F)F)ncc([C@H]3CC[C@H](O)CC3)c2n1` [Compound 308], the results for the half-maximal inhibitory concentration (IC50) at TYRO3 and against AXL were 100 to 1000 nM and 1000 to 10000 nM, respectively.

On to `COC[C@H](C)Nc1ncc2c(OC3CCOCC3)ncc(-c3ccc(N)cc3)c2n1` [Compound 309], for which the half-inhibitory concentration (IC50) at TYRO3 was 100 to 1000 nM; against AXL, 1000 to 10000 nM.

For the compound `COCCN1C(C)(C)CC(Oc2ncc([C@H]3CC[C@H](O)CC3)c3nc(N[C@@H](C)COC)ncc23)CC1(C)C` [Compound 310], the IC50 against TYRO3 and against AXL was no more than 100 nM throughout.

A word on the IC50: it is the concentration at which inhibition is half-maximal. Low readings indicate greater potency, high ones weaker potency.
